Test results taken from ChEMBL document CHEMBL3414557, “Synthesis, molecular docking and Brugia malayi thymidylate kinase (BmTMK) enzyme inhibition study of novel derivatives of [6]-shogaol” (Eur J Med Chem, 2015).
The source made the active and inactive calls. The rule behind the calls is not given here.

Columns and labels:
[1] = tested on: Brugia malayi; assay: (§1) Inhibition of Brugia malayi thymidylate kinase using dTMP substrate by spectrophotometric assay
[2] = as §1

SMILES	inhibition [1]	Ki [2]
CCCCCC(CC(=O)CCc1ccc(OC(=O)c2ccc(Cl)nc2)c(OC)c1)n1cc(C)c(=O)[nH]c1=O (centres undefined)	inactive	–
CCCCCC(CC(=O)CCc1ccc(O)c(OC)c1)n1cnc2c(N)ncnc21 (centres undefined)	–	9.01 µM
CCCCC/C=C/C(=O)CCc1ccc(O)c(OC)c1 [SHOGAOL]	–	10.8 µM
CCCCCC(CC(=O)CCc1ccc(O)c(OC)c1)Nc1ncccc1C (centres undefined)	–	11.1 µM
CCCCCC(CC(=O)CCc1ccc(OS(C)(=O)=O)c(OC)c1)n1cc(C)c(=O)[nH]c1=O (centres undefined)	–	66.1 µM
CCCCCC(CC(=O)CCc1ccc(O)c(OC)c1)n1cc(Br)c(=O)[nH]c1=O (centres undefined)	–	8.32 µM
CCCCCC(CC(=O)CCc1ccc(OC(=O)/C=C/c2ccc(F)cc2)c(OC)c1)n1cc(C)c(=O)[nH]c1=O (centres undefined)	–	44.4 µM
CCCCCC(CC(=O)CCc1ccc(OC(=O)c2ccco2)c(OC)c1)n1cc(C)c(=O)n(C(=O)c2ccco2)c1=O (centres undefined)	–	20.3 µM
CCCCCC(CC(=O)CCc1ccc(O)c(OC)c1)Nc1ccc(C)cn1 (centres undefined)	–	40.6 µM
CCCCCC(CC(=O)CCc1ccc(OC(=O)c2ccc(Cl)nc2)c(OC)c1)Nc1cc(C)ccn1 (centres undefined)	–	30.4 µM
CCCCCC(CC(=O)CCc1ccc(O)c(OC)c1)Nc1cc(C)ccn1 (centres undefined)	–	21.6 µM
CCCCCC(CC(=O)CCc1ccc(OC(=O)c2ccc(OC)cc2)c(OC)c1)n1cc(C)c(=O)n(C(=O)c2ccc(OC)cc2)c1=O (centres undefined)	–	20.1 µM
CCCCCC(CC(=O)CCc1ccc(OS(=O)(=O)c2ccc(C)cc2)c(OC)c1)n1cc(C)c(=O)[nH]c1=O (centres undefined)	–	45.7 µM
CCCCCC(CC(=O)CCc1ccc(O)c(OC)c1)n1cc(C)c(=O)[nH]c1=O (centres undefined)	–	6.57 µM
